Reference: patent publication US5965088A, “Method for providing rapid disinfection of contact lenses” (priority 1997, dated 1999)
Read-outs that look alike come from different tables or passages of the source.

What was measured:
[1] = test system: Fusarium solani (ATCC 36031); assay: Antimicrobial efficacy (stand-alone log reduction), F. solani; assay type: cell-based; conditions: for log reduction at 4 µg/mL: 4.0 ppm alexidine in ReNu MPS
Method: (§1) This Example illustrates the microbiocidal efficacy of solutions according to the present invention. The antimicrobial efficacy of each of various compositions for the chemical disinfection of contact lenses was evaluated. Microbial challenge inoculums were prepared using Pseudomonas aeruginosa (ATCC 9027), Staphylococcus aureus (ATCC 6538), Serratia marcescens (ATCC 13880), Candida albicans (ATCC 10231), and Fusarium solani (ATCC 36031). The test organisms were cultured on appropriate agar and the cultures were harvested using sterile DPBST (Dulbecco's Phosphate Buffered Saline plus 0.05% w/v polysorbate 80) or a suitable diluent and transferred to a suitable vessel. Spore suspensions were filtered through sterile glass wool to remove hyphal fragments. Serratia marcescens, as appropriate, was filtered (eg., through a 1.2 μ filter) to clarify the suspension. After harvesting, the suspension was centrifuged at no more than 5000× g for a maximum of 30 minutes at 20-25° C. The supernatant was poured off and resuspended in DPBST or other suitable diluent. The suspension was centrifuged a second time, and resuspended in DPBST or other suitable diluent. All challenge bacterial and fungal cell suspensions were adjusted with DPBST or other suitable diluent to 1×10^7 -10^8 cfu/mL. The appropriate cell concentration may be estimated by measuring the turbidity of the suspension, for example using a spectrophotometer at a preselected wavelength, for example 490 nm. One tube was prepared containing a minimum of 10 mL of test solution per challenge organism. Each tube of the solution to be tested was inoculated with a suspension of the test organism sufficient to provide a final count of 1.0×10^5 -10^6 cfu/mL, the volume of the inoculum not exceeding 1% of the sample volume. Dispersion of the inoculum was ensured by vortexing the sample for at least 15 seconds. The inoculated product was stored at 10-25° C. Aliquots in the amount of 1.0 mL were taken of the inoculated product for determination of viable counts after certain time periods of disinfection. The time points for the bacteria were 25, 50, 75, and 100% of the minimum disinfection time. Yeast and mold were tested at an additional timepoint of at least 400% of the minimum disinfection time. The suspension was mixed well by vortexing vigorously for at least 5 second. The 1.0 mL aliquots removed at the specified time intervals were subjected to a suitable series of decimal dilutions in validated neutralizing media. The suspensions were mixed vigorously and incubated for a suitable period of time to allow for neutralization of the microbial agent. The viable count of organisms was determined in appropriate dilutions by preparation of triplicate plates of trypticase soy (TSA) agar for bacteria and Sabouraud dextrose agar (SDA) for mold and yeast. The bacterial recovery plates were incubated at 30-35° C. for 2-4 days. The yeast was incubated at 20-30° C. for 2-4 days and mold recovery plates at 20-25° C. for 3-7 days. The average number of colony forming units was determined on countable plates. Countable plates refer to 30-300 cfu/plates for bacteria and yeast, and 8 to 80 cfu/plate for mold except when colonies are observed only for the 10^0 or 10^-1 dilution plates. The microbial reduction was then calculated at the specified time points. […] Following inoculation in a validated neutralizing broth and incubation for an appropriate period of time, the inoculum control must be between 1.0×10^5 -1.0×10^6 cfu/mL
(§2) The solutions were evaluated based on the performance requirement referred to as the "Stand-Alone Procedure for Disinfecting Products" (hereafter the "stand-alone test") and is based on the Disinfection Efficacy Testing for contact lens care products under the Draft Premarket Notification (510(k)) Guidance Document For Contact Lens Care Products dated Apr. 1, 1996, prepared by the U.S. Food and Drug Administration, Division of Ophthalmic Devices. […]

[2] = test system: Candida albicans (ATCC 10231); assay: Antimicrobial efficacy (stand-alone log reduction), C. albicans; assay type: cell-based; conditions: for log reduction at 4 ppm / log reduction at 4 µg/mL: Candida albicans; for log reduction at 4 µg/mL: 4.0 ppm alexidine in ReNu MPS; for Log Reduction C. albicans: PAPB 0.0
Method: as §1, §2

CCCCC(CC)CNC(=N)NC(=N)NCCCCCCNC(=N)NC(=N)NCC(CC)CCCC.Cl.Cl (stereo not shown) [Alexidine.2HCl, 1,1 '-hexamethylenebis(5-(2-ethylhexyl)-biguanide) dihydrochloride]
log reduction at 4 ppm ([1]; ATCC36031, 2.5 min, aged 18 months, Exp. 1, 2.5 min): 2.5
log reduction at 4 ppm ([1]; ATCC36031, 2.5 min, aged 18 months, Exp. 2, 2.5 min): 2.5
log reduction at 4 ppm ([1]; ATCC36031, 2.5 min, aged 18 months, Exp. 3, 2.5 min): 2.2
log reduction at 4 ppm ([1]; ATCC36031, 5 min, aged 18 months, Exp. 1, 5.0 min): 4.3
log reduction at 4 ppm ([1]; ATCC36031, 5 min, aged 18 months, Exp. 2, 5.0 min): 4.1
log reduction at 4 ppm ([1]; ATCC36031, 5 min, aged 18 months, Exp. 3, 5.0 min): 2.1
log reduction at 4 ppm ([1]; ATCC36031, 0.125 h, aged 18 months, Exp. 1, 7.5 min): 4.6
log reduction at 4 ppm ([1]; ATCC36031, 0.125 h, aged 18 months, Exp. 2, 7.5 min): 4.4
log reduction at 4 ppm ([1]; ATCC36031, 0.125 h, aged 18 months, Exp. 3, 7.5 min): 2.4
log reduction at 4 ppm ([1]; ATCC36031, 10 min, aged 18 months, Exp. 1, 10.0 min): > 4.6
log reduction at 4 ppm ([1]; ATCC36031, 10 min, aged 18 months, Exp. 2, 10.0 min): 4.5
log reduction at 4 ppm ([1]; ATCC36031, 10 min, aged 18 months, Exp. 3, 10.0 min): 2.5
log reduction at 4 ppm ([1]; ATCC36031, 0.25 h, Ex. 6, aged 19 months at 25 °C, 15 min): 3.4
log reduction at 4 ppm ([1]; ATCC36031, 0.25 h, Ex. 7, different lot aged 18 months, 15 min): 2.4
log reduction at 4 ppm ([1]; ATCC36031, 0.25 h, Ex. 8, different batch aged 19 months at 25 °C, 15 min): 3.6
log reduction at 4 ppm ([1]; ATCC36031, 0.5 h, Ex. 6, aged 19 months at 25 °C, 30 min): 4.3
log reduction at 4 ppm ([1]; ATCC36031, 0.5 h, Ex. 7, different lot aged 18 months, 30 min): > 4.5
log reduction at 4 ppm ([1]; ATCC36031, 0.5 h, Ex. 8, different batch aged 19 months at 25 °C, 30 min): > 4.6
log reduction at 4 ppm ([1]; ATCC36031, 40 min, aged 18 months, Exp. 1, 40.0 min): > 4.6
log reduction at 4 ppm ([1]; ATCC36031, 40 min, aged 18 months, Exp. 2, 40.0 min): > 4.5
log reduction at 4 ppm ([1]; ATCC36031, 40 min, aged 18 months, Exp. 3, 40.0 min): > 4.6
log reduction at 4 ppm ([1]; ATCC36031, 0.75 h, Ex. 6, aged 19 months at 25 °C, 45 min): 4.4
log reduction at 4 ppm ([1]; ATCC36031, 0.75 h, Ex. 7, different lot aged 18 months, 45 min): > 4.5
log reduction at 4 ppm ([1]; ATCC36031, 0.75 h, Ex. 8, different batch aged 19 months at 25 °C, 45 min): > 4.6
log reduction at 4 µg/mL ([1]; ATCC36031, 1 h, 1 hr): 3.1
log reduction at 4 ppm ([1]; ATCC36031, 1 h, Ex. 6, aged 19 months at 25 °C, 60 min): 4.2
log reduction at 4 ppm ([1]; ATCC36031, 1 h, Ex. 7, different lot aged 18 months, 60 min): > 4.5
log reduction at 4 ppm ([1]; ATCC36031, 1 h, Ex. 8, different batch aged 19 months at 25 °C, 60 min): > 4.6
log reduction at 4 µg/mL ([1]; ATCC36031, 2 h, 2 hr): 4.1
log reduction at 4 µg/mL ([1]; ATCC36031, 3 h, 3 hr): 4.5
log reduction at 4 µg/mL ([1]; ATCC36031, 4 h, 4 hr): 4.6
log reduction at 4 ppm ([1]; ATCC36031, 4 h, Ex. 6, aged 19 months at 25 °C, 4 h): > 4.4
log reduction at 4 ppm ([1]; ATCC36031, 4 h, Ex. 7, different lot aged 18 months, 4 hrs): > 4.5
log reduction at 4 ppm ([1]; ATCC36031, 4 h, Ex. 8, different batch aged 19 months at 25 °C, 4 hrs): > 4.6
log reduction at 4 µg/mL ([1]; ATCC36031, 24 h, 24 hr): > 4.6
Log Reduction ([2]; 4.0 ppm, Ex. 8, different batch aged 19 months at 25 °C, 15 min, dihydrochloride): < 1 log
log reduction at 4 ppm ([2]; ATCC10231, 2.5 min, 4.0 ppm, aged 18 months, Exp. 1, 2.5 min, read-out: Log Reduction): 0
log reduction at 4 ppm ([2]; ATCC10231, 2.5 min, 4.0 ppm, aged 18 months, Exp. 2, 2.5 min, read-out: Log Reduction): 0.1
log reduction at 4 ppm ([2]; ATCC10231, 2.5 min, 4.0 ppm, aged 18 months, Exp. 3, 2.5 min, read-out: Log Reduction): 0
log reduction at 4 ppm ([2]; ATCC10231, 5 min, 4.0 ppm, aged 18 months, Exp. 1, 5.0 min, read-out: Log Reduction): 0
log reduction at 4 ppm ([2]; ATCC10231, 5 min, 4.0 ppm, aged 18 months, Exp. 2, 5.0 min, read-out: Log Reduction): 0.1
log reduction at 4 ppm ([2]; ATCC10231, 5 min, 4.0 ppm, aged 18 months, Exp. 3, 5.0 min, read-out: Log Reduction): 0
log reduction at 4 ppm ([2]; ATCC10231, 0.125 h, 4.0 ppm, aged 18 months, Exp. 1, 7.5 min, read-out: Log Reduction): 0.6
log reduction at 4 ppm ([2]; ATCC10231, 0.125 h, 4.0 ppm, aged 18 months, Exp. 2, 7.5 min, read-out: Log Reduction): 0.5
log reduction at 4 ppm ([2]; ATCC10231, 0.125 h, 4.0 ppm, aged 18 months, Exp. 3, 7.5 min, read-out: Log Reduction): 0.4
log reduction at 4 ppm ([2]; ATCC10231, 10 min, 4.0 ppm, aged 18 months, Exp. 1, 10.0 min, read-out: Log Reduction): 0.7
log reduction at 4 ppm ([2]; ATCC10231, 10 min, 4.0 ppm, aged 18 months, Exp. 2, 10.0 min, read-out: Log Reduction): 0.6
log reduction at 4 ppm ([2]; ATCC10231, 10 min, 4.0 ppm, aged 18 months, Exp. 3, 10.0 min, read-out: Log Reduction): 0.4
log reduction at 4 ppm ([2]; ATCC10231, 0.25 h, 4.0 ppm, Ex. 6, aged 19 months at 25 °C, 15 min): 1.9
log reduction at 4 ppm ([2]; ATCC10231, 0.25 h, 4.0 ppm, Ex. 7, different lot aged 18 months, 15 min, read-out: Log Reduction): 1
log reduction at 4 ppm ([2]; ATCC10231, 0.25 h, 4.0 ppm, Ex. 8, different batch aged 19 months at 25 °C, 15 min, read-out: Log Reduction): 0.9
log reduction at 4 ppm ([2]; ATCC10231, 0.5 h, 4.0 ppm, Ex. 6, aged 19 months at 25 °C, 30 min, read-out: Log Reduction): 2.5
log reduction at 4 ppm ([2]; ATCC10231, 0.5 h, 4.0 ppm, Ex. 7, different lot aged 18 months, 30 min, read-out: Log Reduction): 1.7
log reduction at 4 ppm ([2]; ATCC10231, 0.5 h, 4.0 ppm, Ex. 8, different batch aged 19 months at 25 °C, 30 min, read-out: Log Reduction): 1.7
log reduction at 4 ppm ([2]; ATCC10231, 40 min, 4.0 ppm, aged 18 months, Exp. 1, 40.0 min, read-out: Log Reduction): 2.1
log reduction at 4 ppm ([2]; ATCC10231, 40 min, 4.0 ppm, aged 18 months, Exp. 2, 40.0 min, read-out: Log Reduction): 1
log reduction at 4 ppm ([2]; ATCC10231, 40 min, 4.0 ppm, aged 18 months, Exp. 3, 40.0 min, read-out: Log Reduction): 1
log reduction at 4 ppm ([2]; ATCC10231, 0.75 h, 4.0 ppm, Ex. 6, aged 19 months at 25 °C, 45 min): 2.7
log reduction at 4 ppm ([2]; ATCC10231, 0.75 h, 4.0 ppm, Ex. 7, different lot aged 18 months, 45 min, read-out: Log Reduction): 1.9
log reduction at 4 ppm ([2]; ATCC10231, 0.75 h, 4.0 ppm, Ex. 8, different batch aged 19 months at 25 °C, 45 min): 1.8
log reduction at 4 µg/mL ([2]; ATCC10231, 1 h, 1 hr): 2.9
log reduction at 4 ppm ([2]; ATCC10231, 1 h, 4.0 ppm, Ex. 6, aged 19 months at 25 °C, 60 min, read-out: Log Reduction): 2.8
log reduction at 4 ppm ([2]; ATCC10231, 1 h, 4.0 ppm, Ex. 7, different lot aged 18 months, 60 min, read-out: Log Reduction): 2.1
log reduction at 4 ppm ([2]; ATCC10231, 1 h, 4.0 ppm, Ex. 8, different batch aged 19 months at 25 °C, 60 min, read-out: Log Reduction): 1.9
log reduction at 4 µg/mL ([2]; ATCC10231, 2 h, 2 hr): 4.3
log reduction at 4 µg/mL ([2]; ATCC10231, 3 h, 3 hr): > 4.7
log reduction at 4 µg/mL ([2]; ATCC10231, 4 h, 4 hr): 3.9
log reduction at 4 ppm ([2]; ATCC10231, 4 h, 4.0 ppm, Ex. 6, aged 19 months at 25 °C, 4 h, read-out: Log Reduction): 3.4
log reduction at 4 ppm ([2]; ATCC10231, 4 h, 4.0 ppm, Ex. 7, different lot aged 18 months, 4 hrs): 3.1
log reduction at 4 ppm ([2]; ATCC10231, 4 h, 4.0 ppm, Ex. 8, different batch aged 19 months at 25 °C, 4 hrs, read-out: Log Reduction): 2.6
log reduction at 4 µg/mL ([2]; ATCC10231, 24 h, 24 hr): 4.6
Log Reduction C. albicans ([2]; alexidine 0.5 ppm, 5 min): 0.3 log
Log Reduction C. albicans ([2]; alexidine 0.5 ppm, 15 min): 1.0 log
Log Reduction C. albicans ([2]; alexidine 0.5 ppm, 30 min): -0.2 log
Log Reduction C. albicans ([2]; alexidine 0.5 ppm, 60 min): -0.1 log
Log Reduction C. albicans ([2]; alexidine 2.6 ppm, 5 min): 0.4 log
Log Reduction C. albicans ([2]; alexidine 2.6 ppm, 15 min): 0.5 log
Log Reduction C. albicans ([2]; alexidine 2.6 ppm, 30 min): 0.5 log
Log Reduction C. albicans ([2]; alexidine 2.6 ppm, 60 min): 1.4 log
